In patent publication US20060128763A1 (priority 2003, published 2006):

Legend:
[1] = DSC scan, FIGS. 3 and 4
physchem = conditions: water, thermodynamic from solid
Procedure: The measurement was performed according to the procedure described in the Korean Pharmacopoeia (Korean Ministry of Health and Welfare, General principle of medical supplies, Vol. 1, Clause 29, the 7th revision) which comprises the steps of dissolving each compound in distilled water to saturation, analyzing the saturated solution with liquid chromatography, and measuring the dissolved amount of each compound based on the amount of amlodipine.

Row | thermodynamic stability (DSC absorption peak temperature compared with the crystalline form) [1] | solubility (physchem) [µg/mL] | SMILES
1 | sufficient thermodynamic stability |  | CC1(C)[C@@H]2CC[C@@]1(CS(=O)(=O)O)C(=O)C2.CCOC(=O)C1=C(COCCN)NC(C)=C(C(=O)OC)C1c1ccccc1Cl (centres unmarked) [Amorphous amlodipine camsylate, amorphous amlodipine camsylate]
2 |  | 2350 | CCOC(=O)C1=C(COCCN)NC(C)=C(C(=O)OC)C1c1ccccc1Cl (centres unmarked) [Crystalline amlodipine besylate, amlodipine benzenesulfonate]
